{"source": "patent US8889156B2", "about": "“Calcium-binding agents induce hair growth and/or nail growth” (priority 2009, dated 2014)", "key": {"[1]": {"experiment": "HA binding assay (pulldown of fluorescein-labeled peptides, Langmuir isotherm fit)", "conditions": "fit of Langmuir equation", "protocol": "Fluorescein-labeled DSS-containing peptides of various lengths were subjected to pulldown assays as follows: Samples containing varying concentrations of fluorescein-labeled peptide (0-100 μM) and a fixed amount (0.3 mg) of HA nanocrystals with a specific surface area of 100 m^2/g (Berkeley Advanced Biomaterials, Berkeley, Calif.) were prepared. Measurements were taken of the absorbance of the labeled peptide at 488 nm (the peak absorbance of the fluorescein label) before and after exposure to the HA. The amount of peptide bound was calculated by comparing the ratio of the final (Af) and initial (Ai) absorbances to the initial concentration (C0) [Cbound=(Af/Ai)C0]. Plots were generated of the amount of peptide bound per meter squared of HA surface area vs. concentration of unbound peptide at equilibrium. The resulting isotherms were fit to the Langmuir isotherm, x/m=(KANmaxCeq)/(1+KACeq), where x/m represents the molar amount of peptide bound per unit of HA surface area, KA is the affinity constant of the peptide for the HA surface (L/Mol), Nmax is the maximum surface concentration (mol/m^2), and Ceq is the molar concentration of unbound peptide at equilibrium (Calis et al. (1995) Pharm Res., 12: 1072-1076).\nIn order to quantitatively assess the strength of the DSS-HA interaction as well as to determine the roles of peptide length and sequence on binding, fluorescein-labeled, DSS-containing peptides of various lengths were subjected to pulldown assays as described in “Materials and Methods.”\nThe experimental data were fit to the Langmuir isotherm, which describes the binding of molecules to surfaces with the conditions that (1) all binding sites have the same affinity for the peptide and (2) the peptide will form a monolayer on the surface but cannot accumulate to higher levels (Atkins (1994) Physical chemistry. Freeman, New York). The excellent fit of the Langmuir isotherm to the experimental data validates these conditions, and the constants obtained from this analysis were used for comparisons between peptides. As shown in FIG. 7A and summarized in Table 6, both the binding affinity (KA) and the monolayer concentration (NMax) of the various peptides increased with the number of DSS repeats per peptide. Additionally, several variant peptides were tested (FIGS. 7B, 7C, Table 6): a peptide containing a longer side chain at the first position (4ESS (SEQ ID NO:34)), peptides containing a more sterically hindered hydroxyl group at the second and third positions (4DTT (SEQ ID NO:36), 4NTT (SEQ ID NO:38), 4ETT (SEQ ID NO:37)), peptides lacking a charged group at the first position (4NSS (SEQ ID NO:35), 8ASS (SEQ ID NO:26)), and peptides lacking hydroxyl groups at the second and third positions (DAA-8 (SEQ ID NO:40), 8NAA (SEQ ID NO:41))."}, "[2]": {"experiment": "Nucleation of hydroxyapatite on tooth enamel (SBFn/SBFg, SEM)", "set-up": "species or system human", "conditions": "demineralized enamel, 12.5 μM peptide", "protocol": "To determine whether applying DSS to various preparations of tissue promoted HA nucleation, that could ultimately lead to tissue remineralization, sagittally sectioned adult human teeth (obtained after extraction during normal clinical practice) were polished using a Streurs grinding wheel, and prepared for nucleation experiments. Half of the sections were demineralized with 35% phosphoric acid for 15 minutes, then rinsed thoroughly with deionized water. The other half were left untreated. All samples were then sonicated for five minutes to remove excess debris left from cutting and grinding and/or demineralization. Samples were treated with 12.5 μM 8DSS dissolved in 50 mM HEPES buffer solution (pH 7.0), buffer solution only, or left untreated. Samples were then immersed into a simulated body fluid (SBFn), meant to accelerate nucleation of hydroxyapatite (HA) crystals, for 4 hours. Following the nucleation step, samples were immersed in a magnesium and bicarbonate free solution (SBFg) in order to allow the nucleated HA crystals to grow. […] Both solutions were adjusted to pH 6.8. Crystals were grown in order to amplify the nucleated crystals for easy visualization by SEM."}, "[3]": {"experiment": "Binding of labeled peptides to carious lesions in teeth (CLSM)", "set-up": "species or system human", "conditions": "labeled peptide, settings optimized per sample", "excerpt": "Sections of human teeth containing obvious carious lesions, which consist of demineralized enamel, were polished and exposed to 5(6)-carboxyfluorescein-labeled DSS peptides and variants. The sections were washed extensively and imaged by CLSM using blue laser illumination (A=488 nm) and a FITC emission filter, with microscope and camera settings adjusted for each sample to optimize the signal detected from each peptide. The images were examined to identify the relative levels of peptide binding in healthy versus carious tissue. […] Given their ability to remineralize at sites of enamel degradation, they can also be used to initiate remineralization at sites of enamel degradation such as caries or injury sites without causing inappropriate nucleation on healthy tissue surfaces."}, "[4]": {"experiment": "Binding of calcium phosphate to immobilized DSS peptides on streptavidin-coated polystyrene beads", "conditions": "biotin-conjugated peptide on beads, saturated CaHPO4 solutions", "protocol": "Streptavidin-coated polystyrene beads with an average diameter of 4 μm (Spherotech, Lake Forest, Ill.) were incubated with either biotin-conjugated 8DSS (SEQ ID NO:33) peptide or unconjugated biotin (control beads). Beads were washed with PBS to remove unbound peptide (or unbound biotin in control beads) and incubated in a solution of PBS+1 mM CaCl2+1 mM NaHPO4 for 12 days prior to imaging. […] DSS-containing peptides containing C-terminal biotin labels were then synthesized and immobilized on streptavidin-coated beads. The beads were washed and incubated in solutions containing varying concentrations of CaHPO4 as before. Consistent with previous observations for the dentin phosphoproteins/phosphosphoryns as well as other phosphoproteins (Saito et al. (1997) Bone 21: 305-311; Saito et al. (2000) J Bone Miner Res., 15: 1615-1619), these immobilized peptides caused coaggregation of the beads with particles of amorphous CaHPO4 and eventually led to the deposition of crystalline material around the bead. […] By comparison, in the biotin-blocked control sample, nearly all beads were unaggregated and unassociated with precipitate (FIG. 9, panel B)."}, "[5]": {"experiment": "Binding of labeled peptide to sagittally sectioned adult human molars (CLSM, Example 6)", "conditions": "fluorescein-labeled peptide, 10 min", "protocol": "For binding experiments, sagittally sectioned adult human molars were incubated for 10 min in a solution of 12.5 p.M 5(6)-carboxyfluorescein-labeled 6DSS (SEQ ID NO:32) peptide containing 10 mM NaCl and 50 mM HEPES, pH 7.0. Control samples were prepared without peptide. Samples were rinsed after treatment and imaged by confocal laser scanning microscopy (CLSM) with illumination by a blue Kr/Ar laser (λ=488 nm) and a FITC emission filter. To test binding of DSS-containing peptides to biological tissue, sagittally sectioned human teeth were incubated treated with 6DSS (SEQ ID NO:32) (control samples were prepared without peptide), washed, and imaged by CLSM."}}}
{"substance": "DSS DSS DSSDSS DSS DSS DSS DSS (DSSDSSDSSDSSDSSDSSDSSDSS; synthetic calcium-binding peptide 8DSS)", "values": [{"measurement": "Nmax (maximum monolayer surface concentration)", "setting": "[1]", "value": "8.2 × 10^−8 ± 6 × 10^−9 mol/m^2"}, {"measurement": "KA (binding affinity for HA)", "setting": "[1]; fluorescein-labeled peptide 0-100 μM, 0.3 mg HA nanocrystals", "value": "290,000 ± 70,000 M^−1"}, {"measurement": "crystal growth (nucleation) on enamel", "setting": "[2]", "value": "significant crystal growth"}, {"measurement": "specificity of binding to carious lesions versus healthy enamel", "setting": "[3]", "value": "highly specific binding to carious lesions"}, {"measurement": "strength of staining of carious lesions", "setting": "[3]", "value": "exceptionally strong staining of carious lesions"}, {"measurement": "aggregation/accretion of calcium phosphate by immobilized peptide", "setting": "[4]", "value": "effectively aggregate amorphous calcium phosphate"}, {"measurement": "binding to dentin", "setting": "[5]", "value": "binds tightly to the dentin"}, {"measurement": "binding to enamel", "setting": "[5]", "value": "binding to the enamel almost completely absent"}]}
